Source: US12594267B2, “Capsid inhibitors for the treatment of HIV” (Gilead Sciences, Inc., priority 2018, dated 2026)
Where two headings read alike, the source gives them in different places.

Assay: PK after subcutaneous administration of solutions in rats
Type: in vivo, Wistar Han rat
Details: Wistar Han, plasma, rat, SC 50 mg/kg; for AUC(0-t) / concentration at 28 d / concentration at 84 d / Cmax / concentration at 98 d / concentration at 168 d / concentration at 1 h / concentration at 3 h / concentration at 8 h / concentration at 24 h / concentration at 48 h / concentration at 72 h / concentration at 96 h / concentration at 168 h / concentration at 336 h / concentration at 504 h / concentration at 672 h / concentration at 840 h / concentration at 1008 h / concentration at 1344 h / concentration at 1680 h: sc, 50 mg/kg; for concentration at 28 d: read-out: C28d; for concentration at 84 d: read-out: C84d; for concentration at 98 d: read-out: C98d; for concentration at 1 h / concentration at 3 h / concentration at 8 h / concentration at 24 h / concentration at 48 h / concentration at 72 h / concentration at 96 h / concentration at 168 h / concentration at 336 h / concentration at 504 h / concentration at 672 h / concentration at 840 h / concentration at 1008 h / concentration at 1344 h / concentration at 1680 h: male, 300 mg/mL in 15% water/85% PEG 300
Method: Formulations containing the compound of Formula (Ia) were prepared as aqueous solutions or oral formulations and administered subcutaneously to rats, dogs, cynomolgus monkey, and/or rhesus monkey.
A solution of the compound of Formula (Ia) in 10% ethanol, 13% water, and 77% PEG 200 (400 mg/mL) was prepared. The solution was administered subcutaneously to dogs at a dose of 12 mg/kg and rats at a dose of 50 mg/kg and the pharmacokinetic (PK) profile was determined. […] In both species, plasma concentrations of the compound of Formula (Ia) were maintained above the target trough concentration of 20 nM (corresponding to an IQ of 5) for at least 84 days (12 weeks).
A solution of the free acid of the compound of Formula (Ia) in 15% water and 85% PEG 300 (300 mg/mL) was prepared. The solution was administered subcutaneously to male Wistar Han rats at a dose level of 50 mg/kg and dose volume of 0.167 mL/kg and the pharmacokinetic (PK) profile was determined.
A 300 mg/ml solution of a compound of Formula (Ia) having 9.8 w/w % water, 65.0 w/w % PEG 300, and 25.2 w/w % of the compound of Formula (Ia) was prepared. The solution was administered subcutaneously to rats at a dose of 50 mg/kg and to dogs at a dose of 12 mg/kg and the pharmacokinetic (PK) profile was determined. […] In the rat, plasma concentrations of the compound of Formula (Ia) were maintained above the target trough concentration of 20 nM for at least 168 days (24 weeks). In the dog, plasma concentrations of the compound of Formula (Ia) were maintained above the target trough concentration of 20 nM for at least 84 days (12 weeks).
(§1) A 150 mg/ml solution of a compound of Formula (Ia) having 27.92 w/w % water, 58.04 w/w % PEG 300, 13.47 w/w % of a compound of Formula (Ia), and 1.1 w/w % NaOH was prepared. The solution was administered subcutaneously to rats at a dose of 50 mg/kg and to dogs at a dose of 12 mg/kg and the pharmacokinetic (PK) profile was determined. […] In the rat, plasma concentrations of the compound of Formula (Ia) were maintained above the target trough concentration of 20 nM for at least 126 days (18 weeks). In the dog, plasma concentrations of the compound of Formula (Ia) were maintained above the target trough concentration of 20 nM for at least 56 days (8 weeks).
as §1, with “300” for “150”, “23.2” for “27.92”, “50.0” for “58.04”, “25.7” for “13.47”
A 50 mg/ml solution of a compound of Formula (Ia) having 30.07 w/w % water, 64.40 w/w % PEG 300, 4.68 w/w % of a sodium salt of the compound of Formula (Ia), and 0.85 w/w % poloxamer 188 was prepared. The solution was administered subcutaneously to rats at a dose of 50 mg/kg and to dogs at a dose of 6 mg/kg and the pharmacokinetic (PK) profile was determined. […] In the rat, plasma concentrations of the compound of Formula (Ia) were maintained above the target trough concentration of 20 nM for at least 28 days (4 weeks). In the dog, plasma concentrations of the compound of Formula (Ia) were maintained above the target trough concentration of 20 nM for at least 14 days (2 weeks).
A 75 mg/ml solution of a compound of Formula (Ia) having 29.21 w/w % water, 62.55 w/w % PEG 300, 6.97 w/w % of a sodium salt of the compound of Formula (Ia), and 1.68 w/w % poloxamer 188 was prepared. The solution was administered subcutaneously to rats at a dose of 50 mg/kg and to dogs at a dose of 6 mg/kg and the pharmacokinetic (PK) profile was determined. […]

[1] = 150 mg/mL solution (w/w %: 27.92 water, 58.04 PEG 300, 13.47 Formula (Ia), 1.1 NaOH), mean ± SD, n=3
[2] = 300 mg/mL solution (w/w %: 21.97 water, 47.05 PEG 300, 25.21 Formula (Ia), 1.08 NaOH, 4.69 poloxamer 188), mean ± SD, n=3
[3] = 400 mg/mL solution in 10% ethanol, 13% water, 77% PEG 200, mean ± SD, n=3

Question: Which results are given for CC(C)(C#Cc1ccc(-c2ccc(Cl)c3c(NS(C)(=O)=O)nn(CC(F)(F)F)c23)c([C@H](Cc2cc(F)cc(F)c2)NC(=O)Cn2nc(C(F)(F)F)c3c2C(F)(F)[C@@H]2C[C@H]32)n1)S(C)(=O)=O [Formula (Ia), N—((S)-1-(3-(4-chloro-3-(methylsulfonamido)-1-(2,2,2-trifluoroethyl)-1H-indazol-7-yl)-6-(3-methyl-3-(methylsulfonyl)but-1-yn-1-yl)pyridin-2-yl)-2-(3,5-difluorophenyl)ethyl)-2-((3bS,4aR)-5,5-difluoro-3-(trifluoromethyl)-3b,4,4a,5-tetrahydro-1H-cyclopropa[3,4]cyclopenta[1,2-c]pyrazol-1-yl)acetamide]?
Answer: Tmax [1]: 18.7 ± 4.04 days; AUC(0-t) (50 mg/mL solution (w/w %: 30.07 water, 64.40 PEG 300, 4.68 sodium salt of Formula (Ia), 0.85 poloxamer 188), mean ± SD, n=3, read-out: AUC0-7d): 156 ± 48 µM·h; concentration at 28 d (50 mg/mL solution (w/w %: 30.07 water, 64.40 PEG 300, 4.68 sodium salt of Formula (Ia), 0.85 poloxamer 188), mean ± SD, n=3): 82 ± 35 nM; concentration at 28 d (75 mg/mL solution (w/w %: 29.21 water, 62.55 PEG 300, 6.97 sodium salt of Formula (Ia), 1.68 poloxamer 188), mean ± SD, n=3): 32.5 ± 18.5 nM; AUC(0-t) (100 mg/mL solution (w/w %: 28.36 water, 60.73 PEG 300, 9.23 sodium salt of Formula (Ia), 1.68 poloxamer 188), mean ± SD, n=3, read-out: AUC0-7d): 202 ± 27 µM·h; concentration at 28 d (100 mg/mL solution (w/w %: 28.36 water, 60.73 PEG 300, 9.23 sodium salt of Formula (Ia), 1.68 poloxamer 188), mean ± SD, n=3): 415 ± 98 nM; concentration at 28 d (125 mg/mL solution (w/w %: 27.51 water, 58.92 PEG 300, 11.48 sodium salt of Formula (Ia), 2.09 poloxamer 188), mean ± SD, n=3): 27.9 ± 26.2 nM; concentration at 84 d (150 mg/mL solution (w/w %: 26.6 water, 56.97 PEG 300, 13.39 Formula (Ia), 0.57 NaOH, 2.49 poloxamer 188), mean ± SD, n=3): 53.3 ± 45.7 nM; Cmax [1]: 809 ± 21 nM; concentration at 98 d [1]: 37 ± 10.7 nM; Cmax (300 mg/mL solution (w/w %: 9.8 water, 65.0 PEG 300, 25.2 Formula (Ia)), mean ± SD, n=3): 318 ± 146 nM; concentration at 168 d (300 mg/mL solution (w/w %: 9.8 water, 65.0 PEG 300, 25.2 Formula (Ia)), mean ± SD, n=3, read-out: Cd168): 78.4 ± 13.8 nM; Cmax [2]: 915 ± 248 nM; concentration at 98 d [2]: 51.3 ± 36.5 nM; Cmax (300 mg/mL solution (w/w %: 23.2 water, 50.0 PEG 300, 25.7 Formula (Ia), 1.1 NaOH), mean ± SD, n=3): 355 ± 36 nM; concentration at 168 d (300 mg/mL solution (w/w %: 23.2 water, 50.0 PEG 300, 25.7 Formula (Ia), 1.1 NaOH), mean ± SD, n=3, read-out: C168d): 12.8 ± 3.5 nM; AUC(0-t) (400 mg/mL solution in 10% ethanol, 13% water, 77% PEG 200, mean ± SD, n=3, read-out: AUC0-140d): 569 ± 157 µM·h; concentration at 84 d [3]: 162 ± 30 nM; Cmax [3]: 283 ± 119 nM; concentration at 1 h (rat #1): 8.9 nM; concentration at 3 h (rat #1): 27 nM; concentration at 8 h (rat #1): 37 nM; concentration at 24 h (rat #1): 52.6 nM; concentration at 48 h (rat #1): 69.8 nM; concentration at 72 h (rat #1): 65.6 nM; concentration at 96 h (rat #1): 65.5 nM; concentration at 168 h (rat #1): 143 nM; concentration at 336 h (rat #1): 258 nM; concentration at 504 h (rat #1): 327 nM; concentration at 672 h (rat #1): 333 nM; concentration at 840 h (rat #1): 322 nM; concentration at 1008 h (rat #1): 300 nM; concentration at 1344 h (rat #1): 251 nM; concentration at 1680 h (rat #1): 202 nM; concentration at 1 h (rat #2): 11.4 nM; concentration at 3 h (rat #2): 17.3 nM; concentration at 8 h (rat #2): 32.8 nM; concentration at 24 h (rat #2): 49.2 nM; concentration at 48 h (rat #2): 71.1 nM; concentration at 72 h (rat #2): 66.9 nM; concentration at 96 h (rat #2): 76.8 nM; concentration at 168 h (rat #2): 132 nM; concentration at 336 h (rat #2): 273 nM; concentration at 504 h (rat #2): 267 nM; concentration at 672 h (rat #2): 299 nM; concentration at 840 h (rat #2): 316 nM; concentration at 1008 h (rat #2): 258 nM; concentration at 1344 h (rat #2): 229 nM; concentration at 1680 h (rat #2): 166 nM; concentration at 1 h (rat #3): 5.6 nM; concentration at 3 h (rat #3): 20.1 nM; concentration at 8 h (rat #3): 26.8 nM; concentration at 24 h (rat #3): 42.8 nM; concentration at 48 h (rat #3): 70.8 nM; concentration at 72 h (rat #3): 70.1 nM
